Source: patent US20130244255A1, “ANTIBODIES DIRECTED TO GPNMB AND USES THEREOF” (priority 2006, published 2013)

Legend:
SK-Mel-2 cells = test: ADCC assay with human PBMC (DELFIA EuTDA cytotoxicity); assay type: cell-based; details: 30 to 100 fold PBMC; 2, 5, 10 μg/200 μl mAb
Protocol: Human PBMC were isolated from whole blood using a Ficoll-Plaque. Briefly, in a 50 mL tube, 15 mL of PBS was added to 20 mL of whole blood which was underlayed with 10 mL Ficoll-Plaque and the tube was centrifuged at 2000 RPM. Mononuclear cells were collected from the interface and washed 3 times with PBS. The ADCC assay was carried out in a 96 well plate using a fluorescence assay for cytolysis from Perkin-Elmer (DELFIAEuTDA Cytotoxic assay). The procedure is based on loading target cells with a fluorescence enhancing ligand (BATDA, bis (acetoxymethyl) terpyridine—dicarboxylate). The hydrophic ligand penetrates the membrane quickly. Within the cell the esterbonds are hydrolyzed to form a hydrophilic ligand (TDA, terpyridine—dicarboxylic acid) which can no longer pass through the membrane. After cytolysis the ligand is released and introduced to the Europium solution. The europium and the ligand form a highly fluorescent and stable chelate (EuTDA). Fluorescence intensity are recorded using excitation and emission wavelengths as λex=340 nm and λem=613 nm, respectively.

CG56972 = target: T1, CG56972 (Homo sapiens, UniProt Q14956); test: Flow cytometry of CR011 binding to cell surface CG56972/GPNMB (GMR)
T1 construct: endogenous in cells; host or cells: SK-MEL-2, XF-498, U-118-MG, SNB-78, SF-539, SF-268 and further human lines (ATCC / NCI)
T1 sequence (Q14956 23-572): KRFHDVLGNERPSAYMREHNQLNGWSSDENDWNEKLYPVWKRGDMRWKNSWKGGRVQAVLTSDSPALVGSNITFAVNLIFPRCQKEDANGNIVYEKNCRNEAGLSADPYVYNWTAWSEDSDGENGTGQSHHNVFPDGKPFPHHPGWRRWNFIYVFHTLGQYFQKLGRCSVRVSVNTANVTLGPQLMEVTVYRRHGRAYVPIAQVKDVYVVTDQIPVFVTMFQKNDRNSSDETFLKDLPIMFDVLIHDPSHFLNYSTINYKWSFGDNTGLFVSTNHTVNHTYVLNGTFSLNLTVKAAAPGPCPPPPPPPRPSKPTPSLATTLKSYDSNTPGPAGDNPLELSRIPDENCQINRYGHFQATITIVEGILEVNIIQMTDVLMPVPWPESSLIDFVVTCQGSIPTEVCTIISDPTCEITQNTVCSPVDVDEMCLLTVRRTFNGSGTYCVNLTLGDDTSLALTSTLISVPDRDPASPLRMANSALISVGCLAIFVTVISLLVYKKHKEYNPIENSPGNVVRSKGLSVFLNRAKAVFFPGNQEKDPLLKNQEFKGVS
Protocol: (§1) Quantitative analysis of GPNMB expression on the cell surface of cell lines was determined by flow cytometry. […] Cells were fixed in 1% paraformaldehyde/PBS and examined on a Becton Dickinson FACSCalibur flow cytometer. Data analysis was performed with Becton Dickinson Cell Quest software version 3.3 and the geometric mean fluorescence intensity ratio (GMR) was determined for each cell type.
as §1, with “CG56972” for “GPNMB”, “the” for “the cell”, “cytometry (FACS).” for “cytometry.”

[1] = system: SK-MEL-2 human melanoma xenograft; test: SK-MEL-2 human melanoma xenograft in athymic mice; assay type: in vivo; details: observation period >200 days
A2058 = test: Clonogenic assay with 1.15.1-AE; assay type: cell-based, human
Protocol: (§2) Melanoma cell lines were plated onto flat bottom 96-well tissue culture plates (Becton Dickinson, Franklin Lakes, N.J., USA). On day 2 or when cells reach ˜25% confluency, various concentrations of unconjugated and Auristatin E-conjugated 1.15.1 were added to cells. MAb 2.6.2-AE was also used as a conjugated isotype control in this study. On day 5, the cells were trypsinized, transferred to 6-well tissue culture plates and incubated at 37° C. Plates were examined daily. On days 8-10, all plates were Giemsa stained and colonies on the plates were counted.

HT144 = test: Clonogenic assay with 1.15.1-AE; assay type: cell-based, human
Protocol: as §2

HEMNLP = test: Clonogenic assay with 1.15.1-AE; assay type: cell-based, human
Protocol: as §2

M14 = test: Clonogenic assay with 1.15.1-AE; assay type: cell-based, human
Protocol: as §2

LOXIMVI = test: Clonogenic assay with 1.15.1-AE; assay type: cell-based, human
Protocol: as §2

MEWO = test: Clonogenic assay with 1.15.1-AE; assay type: cell-based, human
Protocol: as §2

human interleukin-8 = test: Plasma human IL-8 (ELISA) in SK-MEL-2 xenograft-bearing athymic mice; assay type: in vivo
Protocol: Interleukin-8 (IL-8) was measured by an enzyme-linked immunosorbent assay using a commercial kit (Human CXCL8/IL-8 Quantikine ELISA Kit, 3rd Generation; R&D Systems, Minneapolis, Minn.), which recognizes human, but not mouse, IL-8. Assays were conducted according to the manufacturer's instructions in which the IL-8 was detected by binding to IL-8 specific mAb pre-coated onto 96-well microliter plate. Standards and samples were pipetted into the wells and human IL-8 was bound by the immobilized antibody. After washing away the unbound substances, horseradish peroxidase-conjugated IL-8 specific polyclonal antibody was added to the wells. Following a wash, substrate solution was added and color developed; the plate was read on an ELISA plate reader. Results were calculated from a standard curve, generated by a four-parameter logistic curve fit, and expressed in picograms per milliliter. The lower limit of quantitation of the assay was 3.5 pg/mL and for each timepoint, n=3 mice. No human IL-8 could be detected in the blood of normal (non-tumor-bearing) athymic mice.
Plasma concentrations of human IL-8 were measured by the species-specific ELISA assay described in Materials and Methods. At the beginning of treatment (day 16), the human IL-8 level in plasma was 29.8 pg/ml. […] At day 30 (14 days after treatment), plasma IL-8 level was not detected and remained undetectable for the duration of the experiment (FIG. 26).

| Substance | cytolysis of SK-MEL-2 cells (ADCC) (SK-Mel-2 cells) | surface staining above control mAb background (CG56972; SF-268, CR011 10 μg/mL) | surface staining above isotype control mAb background (CG56972; SF-539, CR011 10 μg/mL) | cell surface staining (in words) (CG56972; SK-MEL-2) | surface staining above isotype control mAb background (CG56972; SNB-78, CR011 10 μg/mL) | surface staining above isotype control mAb background (CG56972; U-118-MG, CR011 10 μg/mL) | surface staining above isotype control mAb background (CG56972; XF-498, CR011 10 μg/mL) | re-growth of completely regressed tumors [1] | Clonogenic Assay with 1.15.1-AE IC50 in ng/mL (A2058) | Clonogenic Assay with 1.15.1-AE IC50 in ng/mL (HT144) | Clonogenic Assay with 1.15.1-AE IC50 in ng/mL (HEMNLP) | Clonogenic Assay with 1.15.1-AE IC50 in ng/mL (M14) | Clonogenic Assay with 1.15.1-AE IC50 in ng/mL (LOXIMVI) | Clonogenic Assay with 1.15.1-AE IC50 in ng/mL (MEWO) | plasma IL-8 level (human interleukin-8; 1 mg/kg single bolus, day 17.5 (1.5 days after treatment)) [pg/mL] | plasma IL-8 level (human interleukin-8; 1 mg/kg single bolus, day 58 (42 days after treatment)) [pg/mL] | plasma IL-8 level (human interleukin-8; 10 mg/kg single bolus, day 17.5 (1.5 days after treatment)) [pg/mL] | plasma IL-8 level (human interleukin-8; 10 mg/kg single bolus, day 23 (7 days after treatment)) [pg/mL] | plasma IL-8 level (human interleukin-8; 10 mg/kg single bolus, day 30 (14 days after treatment) and after, lower limit of quantitation 3.5 pg/mL) |
| --- | --- | --- | --- | --- | --- | --- | --- | --- | --- | --- | --- | --- | --- | --- | --- | --- | --- | --- | --- |
| CR011: fully human monoclonal antibody that specifically binds to GPNMB; VH SEQ ID NO: 20, VL SEQ ID NO: 29 | did not show any cytolysis | around 1.5 fold | at least 1.5 fold | strong cell surface staining | at least 1.5 fold | at least 1.5 fold | at least 1.5 fold |  |  |  |  |  |  |  |  |  |  |  |  |
| CR011-vcMMAE: CR011 conjugated to monomethyl auristatin E through a protease cleavable valine-citrulline linker; approx. 4 drugs per antibody |  |  |  |  |  |  |  | did not re-grow | No effect | Inconclusive | Inconclusive | Inconclusive | No effect | Inconclusive | 46.3 | 414.63 | 52.85 | 24.39 | not detected |
